Drawing on patent US9216991B2 (Ares Trading S.A., priority 2012, dated 2015), this text covers IC50 for 12 molecules.

Structures can show the parent of a compound that is named as a salt.

What is called IC50 is the point on the concentration scale where inhibition reaches its midpoint.

In the assay the target is T1, IRAK4 (Homo sapiens, UniProt Q9NWZ3).
T1 construct: His (N); TEV cleavage site (N)
T1 sequence (Q9NWZ3 1-460): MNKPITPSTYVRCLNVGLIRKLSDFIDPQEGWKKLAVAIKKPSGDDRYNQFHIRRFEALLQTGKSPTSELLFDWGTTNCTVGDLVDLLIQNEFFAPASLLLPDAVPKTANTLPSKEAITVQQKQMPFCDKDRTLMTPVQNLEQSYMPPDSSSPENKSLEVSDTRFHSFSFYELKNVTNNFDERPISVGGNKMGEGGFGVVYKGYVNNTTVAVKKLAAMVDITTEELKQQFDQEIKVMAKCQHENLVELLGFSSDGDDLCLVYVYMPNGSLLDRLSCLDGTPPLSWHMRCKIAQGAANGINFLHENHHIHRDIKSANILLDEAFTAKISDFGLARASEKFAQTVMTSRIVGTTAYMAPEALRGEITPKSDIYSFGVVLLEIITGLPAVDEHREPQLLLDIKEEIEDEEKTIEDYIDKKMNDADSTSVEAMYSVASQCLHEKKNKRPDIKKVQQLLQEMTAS
Description: IRAK4 Enzymatic Assay. Format: biochemical. As to conditions: His-TEV-IRAK4 20 ng/well, ATP 2 μM, STK1-biotin peptide 300 nM, 3 hours at 30° C., FlashPlate radioactivity. Summed up:
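Radiometric FlashPlate readout: biotin-STK1 substrate (300 nM) captured on streptavidin after EDTA stop and washes. Reaction used His-TEV-IRAK4 (20 ng/well), 2 μM [^33P]-spiked ATP and compound (1 nM-20 μM), incubated 3 h at 30 °C in 50 mM HEPES pH 7.0, 10 mM MgCl2, 5 mM MnCl2, 2 mM DTT.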
Regarding `Cn1cc(-c2cccc(-c3ncc(-c4cnn(CCNS(C)(=O)=O)c4)cn3)c2)cn1` [Example 210, N-[2-(4-{2-[3-(1-Methyl-1H-pyrazol-4-yl)-phenyl]-pyrimidin-5-yl}-pyrazol-1-yl)-ethyl]-methanesulfonamide], the IC50 is 1000 to 5000 nM.

For the molecule `Cn1cc(-c2cccc(-c3ncc(-c4cnn(CCN5CCCC5)c4)cn3)c2)cn1` [Example 58, 2-[3-(1-Methyl-1H-pyrazol-4-yl)-phenyl]-5-[1-(2-pyrrolidin-1-yl-ethyl)-1H-pyrazol-4-yl]-pyrimidine], the IC50 lay within 100 to 1000 nM.

`CN(CCO)C(=O)[C@H]1CC[C@H](n2cc(-c3cnc(-c4cccc(-c5cnn(C)c5)c4)nc3)cn2)CC1` [Example 185, trans-4-(4-{2-[3-(1-Methyl-1H-pyrazol-4-yl)-phenyl]-pyrimidin-5-yl}-pyrazol-1-yl)-cyclohexanecarboxylic acid (2-hydroxy-ethyl)-methyl-amide]: the 50% inhibitory concentration (IC50) is under 100 nM.

Regarding `CN1CCC(n2cc(-c3cnc(-c4cccc(-c5cnn(C)c5)c4)nc3)cn2)CC1` [Example 6, 5-[1-(1-Methyl-piperidin-4-yl)-1H-pyrazol-4-yl]-2-[3-(1-methyl-1H-pyrazol-4-yl)-phenyl]-pyrimidine], the 50% inhibitory concentration (IC50) is 100 to 1000 nM.

For `CCOCC(=O)N1CCC(n2cc(-c3cnc(-c4cccc(-c5cnn(C)c5)c4)nc3)cn2)CC1` [Example 111, 2-Ethoxy-1-[4-(4-{2-[3-(1-methyl-1H-pyrazol-4-yl)-phenyl]-pyrimidin-5-yl}-pyrazol-1-yl)-piperidin-1-yl]-ethanone], the half-inhibitory concentration (IC50) lay in the range of 100 to 1000 nM.

For `C[C@H](CO)NC(=O)[C@H]1CC[C@H](n2cc(-c3cnc(-c4cccc(-c5cnn(C)c5)c4)nc3)cn2)CC1` [Example 199, Trans-4-(4-{2-[3-(1-Methyl-1H-pyrazol-4-yl)-phenyl]-pyrimidin-5-yl}-pyrazol-1-yl)-cyclohexanecarboxylic acid ((R)-2-hydroxy-1-methyl-ethyl)-amide], the IC50 was under 100 nM.

Turning to `Cn1cc(-c2cccc(-c3ncc(-c4cnn(CC5CCNC5)c4)cn3)c2)cn1` (stereo not drawn) [Example 65, 2-[3-(1-Methyl-1H-pyrazol-4-yl)-phenyl]-5-(1-pyrrolidin-3-ylmethyl-1H-pyrazol-4-yl)-pyrimidine hydrochloride], the IC50 lay within 100 to 1000 nM.

In the case of `CC(O)CCNC(=O)[C@H]1CC[C@H](n2cc(-c3cnc(-c4cccc(-c5cnn(C)c5)c4)nc3)cn2)CC1` (stereo partly drawn) [Example 228, trans-4-(4-{2-[3-(1-Methyl-1H-pyrazol-4-yl)-phenyl]-pyrimidin-5-yl}-pyrazol-1-yl)-cyclohexanecarboxylic acid (3-hydroxy-butyl)-amide], the IC50 was under 100 nM.

Consider `Cn1cc(-c2cccc(-c3ncc(-c4cnn(C5CCC(C(=O)N6CCO[C@@H](CO)C6)CC5)c4)cn3)c2)cn1` (stereo partly drawn) [Example 266, ((R)-2-Hydroxymethyl-morpholin-4-yl)-[4-((S)-4-{2-[3-(1-methyl-1H-pyrazol-4-yl)-phenyl]-pyrimidin-5-yl}-pyrazol-1-yl)-cyclohexyl]-methanone], for which the IC50 was under 100 nM.

For `CC(C)n1cc(-c2cccc(-c3ncc(-c4cnn(C5CCNCC5)c4)cn3)c2)cn1` [Example 20, 2-[3-(1-Isopropyl-1H-pyrazol-4-yl)-phenyl]-5-(1-piperidin-4-yl-1H-pyrazol-4-yl)-pyrimidine hydrochloride], the IC50 lay within 100 to 1000 nM.

In the case of `Cn1cc(-c2cccc(-c3ncc(-c4cnn([C@H]5CCC[S@@+]([O-])C5)c4)cn3)c2)cn1` (racemic) [Example 236, 2-[3-(1-Methyl-1H-pyrazol-4-yl)-phenyl]-5-[1-(Cis-1-oxo-tetrahydro-thiopyran-3-yl)-1H-pyrazol-4-yl]-pyrimidine], the IC50 is under 100 nM.

On to `CN1C[C@]2(CC[C@H](n3cc(-c4cnc(-c5cccc(-c6cnn(C)c6)c5)nc4)cn3)CC2)CC1=O` [Example 260, trans-2-Methyl-8-(4-{2-[3-(1-methyl-1H-pyrazol-4-yl)-phenyl]-pyrimidin-5-yl}-pyrazol-1-yl)-2-aza-spiro[4.5]decan-3-one], for which the concentration for half-maximal inhibition (IC50) is under 100 nM.
